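A five-concentration, 48-hour dose response in 96-well plates underlies each endpoint, interpolated linearly between surrounding concentrations. Here, GI50 denotes the concentration required for 50% inhibition of growth. TGI marks complete inhibition of growth.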
What was measured:
Experiment in all cases: NCI tumour cell line growth inhibition, 48 h
NCI-H226 lung = system: NCI-H226 lung
MDA-MB-435 = system: MDA-MB-435
SF-268 CNS = system: SF-268 CNS
T-47D breast = system: T-47D breast
HCC-2998 colon = system: HCC-2998 colon
HOP-92 NSCLC = system: HOP-92 NSCLC
U251 CNS = system: U251 CNS
MDA-MB-231 breast = system: MDA-MB-231 breast
TK-10 renal = system: TK-10 renal
MCF7 breast = system: MCF7 breast

SMILES | GI50 (NCI-H226 lung) [µM] | TGI (NCI-H226 lung) [µM] | GI50 (MDA-MB-435) [µM] | TGI (MDA-MB-435) [µM] | GI50 (SF-268 CNS) [µM] | TGI (SF-268 CNS) [µM] | GI50 (T-47D breast) [µM] | TGI (T-47D breast) [µM] | GI50 (HCC-2998 colon) [µM] | TGI (HCC-2998 colon) [µM] | GI50 (HOP-92 NSCLC) [µM] | TGI (HOP-92 NSCLC) [µM] | GI50 (U251 CNS) [µM] | TGI (U251 CNS) [µM] | GI50 (MDA-MB-231 breast) [µM] | TGI (MDA-MB-231 breast) [µM] | GI50 (TK-10 renal) [µM] | TGI (TK-10 renal) [µM] | GI50 (MCF7 breast) [µM] | TGI (MCF7 breast) [µM]
O=S1(=O)N(Cc2ccccc2)[C@@H](Cc2ccccc2)[C@H](O)[C@H](O)[C@H](Cc2ccccc2)N1Cc1ccccc1 | 3.04 | 6.17 | 3.33 | 7.1 | 3.44 | 8.03 | 3.95 | 10.2 | 3.41 | 6.2 | 3.15 | 6.68 | 3.07 | 6.47 | 2.82 | 6.39 | 3.77 | 8.38 | 4.77 | 13.6
CCN1CCN(c2cc(C)nc(N(CCCNc3ccnc4cc(Cl)ccc34)Cc3ccc4c(c3)OCO4)n2)CC1 | 32.8 | > 100 | 1.77 | 3.3 | 2.57 | 7.9 | 2.26 | 4.88 | 2.4 | 5.39 | 1.61 | 4.67 | 2.13 | 4.73 | 1.93 | 4.44 | 1.84 | 3.87 | 2.88 | 21.5
Oc1c(Cl)cc(Cl)c2ccc(Cn3cc(-c4cc(C(F)(F)F)cc(C(F)(F)F)c4)nn3)nc12 | 4.93 | 21 | 1.82 | 4.18 | 4.22 | 17.5 | 1.67 | 5.55 | 7.72 | 21.4 | 1.45 | 4.03 | 4.52 | 16.8 | 2 | 4.95 | 1.82 | 3.83 | 0.526 | 2.1
Cc1cc(Nc2nc(C(=O)Nc3ccccc3)nc3ccccc23)n[nH]1 | 10 | > 25 | 9.67 | > 25 | 9.25 | > 25 | 6.61 | > 25 | 17.7 | > 25 | 0.399 | > 25 | 5.71 | > 25 | 13.6 | > 25 | 2.52 | > 25 | 13 | > 25
CCOc1ccc(/C(C=O)=C(\Cl)c2ccc(OC)cc2)cc1 | – | > 100 | – | > 100 | – | > 100 | – | > 100 | – | > 100 | – | > 100 | – | > 100 | – | > 100 | – | > 100 | – | > 100
O=C(Nc1ccc(-n2ccc3c(NC(=O)c4ccccc4)ncnc32)cc1)c1cccc(C(F)(F)F)c1 | 6.14 | 26.1 | 2.16 | 16.3 | 1.16 | 24.5 | 5.82 | 30.6 | 4.96 | 27 | 7.51 | 26 | 0.146 | 13.7 | 2.76 | 23 | 8.57 | 27.2 | 1.39 | 18.5
c1cc(-c2nnc(SSc3ncnc4nc[nH]c34)o2)ccn1 | 4.63 | > 100 | 0.497 | > 100 | 2.18 | > 100 | 0.467 | > 100 | 3.38 | > 100 | 0.582 | > 100 | 7.22 | > 100 | 4.45 | > 100 | 0.487 | > 100 | 0.419 | > 100

From PubChem BioAssay (NCI)
